Laboratory results published in patent US11161803B2, “Ammonium carboxylate compound, crystalline form, amorphous form and preparation method thereof” (priority 2017, dated 2021).
Where a name gives a salt, the structure may show the parent alone.

Assays:
Assay type in all cases: physicochemical
[1] = Stability comparison test (main peak purity of the samples on storage); settings: for decrease of purity: at 25° C. 60 days later
Experimental: Each portion was about 100 mg, placed in a zip-lock bag and added with a desiccant, then three-layer packaged by a two-layer aluminum plastic material with each layer vacuumed, and stored at 25° C. (relative humidity 60%) and 40° C. […] Relevant substances of the samples were respectively determined at 0 day, 30 days, and 60 days later.

[2] = Solid form and hygroscopicity of the salts as obtained (comparative examples); settings: for hygroscopicity (in words) / solid form (in words): product as obtained
Experimental: (§1) A crude product of ethyl (2R,4S)-5-(biphenyl-4-yl)-4-[(3-carboxypropionyl)amino]-2-methylpentanoate (52.4 g, 0.125 mol) and acetone (629 ml) were added to a 1 L three-necked flask equipped with a mechanical stirrer, stirred and dissolved at room temperature; cooled to 0-10° C. for 5-10 min, added dropwise with potassium hydroxide solution (25 ml, 5 mol/L), after the addition was completed, kept stirring for 1 h, concentrated to dryness, added with methanol (125 ml) or ethanol (125 ml), concentrated to dryness to give potassium 4((2S,4R)-1-([1,1′-biphenyl]-4-yl)-5-ethoxy-4-methyl-5-oxopentan-2-yl)amino)-4-oxobutanoate (AHU-377 potassium salt).
as §1, with “min and” for “min,”, “sodium” for “potassium”, “sodium 4-(((2S,4R)-1-([1,1′-biphenyl]-4-yl)-5-ethoxy-4-methyl-5-oxopentan-2-yl)amino)-4-oxobutyrate” for “potassium 4((2S,4R)-1-([1,1′-biphenyl]-4-yl)-5-ethoxy-4-methyl-5-oxopentan-2-yl)amino)-4-oxobutanoate”
A crude product of ethyl (2R,4S)-5-(biphenyl-4-yl)-4-[(3-carboxypropionyl)amino]-2-methylpentanoate (52.4 g, 0.125 mol) and acetone (629 ml) were added to a 1 L three-necked flask equipped with a mechanical stirrer, stirred and dissolved at room temperature: cooled to 0-10° C. for 5-10 min and added dropwise with a basic ammonium salt such as choline (15 g, 0.125 mol), after the addition was completed, kept stirring for 1 h, concentrated to dryness, added with methanol (125 ml) or ethanol (125 ml), and concentrated to dryness.

[3] = Stability comparison test (main peak purity of the samples on storage); settings: at 60° C. 60 days later (so in the source)
[4] = Water adsorption and desorption test (DVS, hygroscopicity); settings: 25° C.; for change of hygroscopicity: under 80% humidity
Experimental: DVS detection of the ammonium salt: instrument model: TA Q5000SA, balance at 25° C., humidity start from 0.00%, balance for 180 min, balance for 15 min when the weight gain is less than 0.01%, 10% gradient humidity increase from 0.00% to 90.00%, each gradient maintained for 120 min; a 10% gradient humidity reduction procedure performed when the humidity is from 90.00% to 0.00%, each gradient maintained for 120 min.
DVS detection of other products: instrument model: SMS DVS Intrinsic, 0-95% RH, temperature: 25° C.
The water adsorption and desorption tests of the compound (A) of example 1 at 25° C., 0 to 95% relative humidity were carried out by a dynamic water adsorber (DVS) to determine the hygroscopicity of the compound of formula (A).
The water adsorption and desorption experiments of the crystalline form I of the compound of formula (A) prepared by methods of example 3 at 25° C., 0 to 95% relative humidity were carried out by a dynamic water adsorber (DVS) to determine the hygroscopicity of the crystalline form I of the compound of formula (A).
The water adsorption and desorption experiments of the sample of example 6 at 25° C., 0 to 95% relative humidity were carried out by a dynamic water adsorber (DVS) to determine the hygroscopicity of the amorphous form of the compound of formula (A).

[5] = Drug interaction test: stability of the mixture of crystalline form I of the compound of formula (A) + compound of formula (B)
From the text: The applicant has found through repeated studies in the research of drug compatibility that the compound of formula (A), the crystalline form I, single crystal, amorphous form, crystalline form II thereof have good compatibility with the compound of formula (I) described in CN103709154A. A specific compound of formula (B) was selected to be mixed with the crystalline form I of the compound of formula (A) prepared in example 3 of the present disclosure for further stability studies.

[6] = 25° C. (relative humidity 60%), test time 0 day
[7] = 25° C. (relative humidity 60%), test time 30 days
[8] = 25° C. (relative humidity 60%), test time 60 days
[9] = 40° C. (relative humidity 75%), test time 0 day
[10] = 40° C. (relative humidity 75%), test time 30 days
[11] = 40° C. (relative humidity 75%), test time 60 days

| SMILES | main peak purity [1, 6] | main peak purity [1, 7] | main peak purity [1, 8] | main peak purity [1, 9] | main peak purity [1, 10] | main peak purity [1, 11] | decrease of purity [1] | hygroscopicity (in words) [2] | solid form (in words) [2] | decrease of purity [3] | also measured |
| --- | --- | --- | --- | --- | --- | --- | --- | --- | --- | --- | --- |
| CCOC(=O)[C@H](C)C[C@@H](Cc1ccc(-c2ccccc2)cc1)NC(=O)CCC(=O)[O-].[Na+] [AHU-377 sodium salt, sodium 4-(((2S,4R)-1-([1,1′-biphenyl]-4-yl)-5-ethoxy-4-methyl-5-oxopentan-2-yl)amino)-4-oxobutyrate] | 94.12% | 94.16% | 93.75% | 94.12% | 94.06% | 93.86% | 0.37% | highly hygroscopic despite less hygroscopic than potassium salt | does not exhibit a good solid form | 0.26% | – |
| CCOC(=O)C(C)CC(Cc1ccc(-c2ccccc2)cc1)NC(=O)CCC(=O)O (stereo not shown) [crystalline form II] | – | – | – | – | – | – | – | – | – | – | change of hygroscopicity ([4]; DVS): changes very little |
| CCOC(=O)[C@H](C)C[C@@H](Cc1ccc(-c2ccccc2)cc1)NC(=O)CCC(=O)O [AHU-377 potassium salt] | 93.63% | 93.31% | 93.28% | 94.11% | 94.05% | 93.37% | 0.35% | highly hygroscopic | failed to exhibit a good solid form | 0.74% | – |
| CCOC(=O)C(C)CC(Cc1ccc(-c2ccccc2)cc1)NC(=O)CCC(=O)O [Compound of formula (A), ammonium 4-((2S,4R)-1-([1, l′-biphenyl]-4-yl)-5-ethoxy-4-methyl-5-oxopentan-2-yl)amino)-4-oxobutanoate] | 99.82% | 99.80% | 99.82% | 99.82% | 99.68% | 99.58% | almost unchanged | – | – | 0.24% | stability compared with the potassium salt and the sodium salt of AHU-377 [1]: far superior; stability compared with the organic ammonium salt of AHU-377 ([1]; by comparison in the same experiment): superior; hygroscopicity ([4]; DVS, 0 to 95% relative humidity, FIG. 26): less than 2% |
| CCOC(=O)C(C)CC(Cc1ccc(-c2ccccc2)cc1)NC(=O)CCC(=O)O (stereo not shown) | – | – | – | – | – | – | – | – | – | – | change of the form in DVS ([4]; range of 0 to 95% relative humidity, FIG. 15): do not change |
| CCOc1nc2cccc(C(=O)OC(C)OC(=O)OCc3nc(C)c(C)nc3C)c2n1Cc1ccc(-c2ccccc2-c2noc(=O)[n-]2)cc1.[K+] (stereo not shown) [Formula (B)] | – | – | – | – | – | – | – | – | – | – | stability of the potassium salt of formula (B) in the mixture with crystalline form I compared with formula (B) as a single component [5]: superior; Maximum unknown single impurity ([5]; test time 0 day): 0.05%; Total impurities ([5]; test time 0 day): 0.72%; Maximum unknown single impurity ([5]; test time 30 days): 0.05%; Total impurities ([5]; test time 30 days): 1.29%; Maximum unknown single impurity ([5]; test time 60 days): 0.06%; Total impurities ([5]; test time 60 days): 1.67%; Maximum unknown single impurity ([5]; test time 90 days): 0.04%; Total impurities ([5]; test time 90 days): 1.99% |
| CCOC(=O)[C@H](C)C[C@@H](Cc1ccc(-c2ccccc2)cc1)NC(=O)CCC(=O)O [organic ammonium salt of 4 ((2S,4R)-1-([1,1′-biphenyl]-4-yl)] | – | – | – | – | – | – | – | high hygroscopicity | cannot be obtained in a solid form | – | – |
| CCOC(=O)C(C)CC(Cc1ccc(-c2ccccc2)cc1)NC(=O)CCC(=O)O (stereo not shown) [crystalline form I of the compound of formula (A)] | – | – | – | – | – | – | – | – | – | – | change of hygroscopicity ([4]; DVS): do not change much; hygroscopicity compared with AHU-377 sodium salt and AHU-377 potassium salt [2]: significantly more hygroscopic |
